According to patent publication US11680218B2, “Biodegradable lubricant with tailored hydrolytic stability and improved thermal stability through alkoxylation of glycerol” (Tetramer Technologies, LLC, priority 2018, dated 2023):

Columns and labels:
[1] = Differential scanning calorimetry (melt enthalpy, undercooling, percent solids index); type: physicochemical; details: DSC, heating from solid, 5° C./min
Text: It is known in the art that alkoxylation has the potential to decrease the pour point of an ester. However, the current disclosure has observed a surprising decrease in the melting enthalpy and a marked reduction in the degree of undercooling. The degree of undercooling for a base oil indicates the increase in temperature required to fully melt an oil after crystallization has started. The degree of undercooling for the purpose of this disclosure is described as the difference between the temperature at which a material is fully melted on heating and the temperature at which the material begins to crystallize on cooling [Tmelt−Tonset=Undercool] as determined by differential scanning calorimetry (DSC) with a heating and cooling rate of 5° C./min. “Undercooling” and “degree of undercooling” can be used synonymously.
Oils with a lower undercooling require a smaller increase in temperature after crystallization to melt the oil and erase the oil “memory.” Shelby and Miller teach the concept of oil “memory” as a result of gels or crystals not fully dissociating even when above the melt point, so that on a second cooling cycle, gelation or crystal growth occurs much more quickly and at higher temperatures. If two oils have the same crystallization onset temperature, the oil with the lower undercooling will fully melt at a lower temperature and erase the oil “memory”. […] The effect of this is that glycerol esters and polyol esters must be heated substantially above the onset of crystallization in order to melt the oil before use. […] At 5° C. above the onset of crystallization temperature, 100% of Ex. 92 (glycerol ester) is solid; 31% of Ex 93 (PG3 ester) is solid; 18% of Ex. 94 (PG10 ester) is solid; and 81% of Ex 90 (TMP ester) is solid.
Examples 90, 92-94: Reductions in the enthalpy of melting are observed for propoxylated glycerol esters and TMP esters relative to the glycerol ester, see FIG. 19, Table 5, FIG. 20, Table 6 and FIG. 21, Table 7. […] DSC analysis was conducted within the temperature range −80° C. to 40° C. with cyclic cooling and heating rates of 5° C./min. The DSC melt thermograms for each material were integrated as a function of temperature and normalized to the overall melt enthalpy to generate a percent solids index that is the basis for the data in the Solids @ Onset+T columns. The data under Solids @ Onset+5 and +10° C. are indicative of the percent of solids in a base oil when heating from a fully solid or crystalline state. […] Both glycerol and TMP esters show higher degrees of undercooling and higher melt enthalpies compared to analogous propoxylated glycerol esters, see FIG. 20, Table 6.

[2] = literature value, cited from earlier work

| percent solid at 5° C. above the onset of crystallization temperature [1] [%] | percent solid at 10° C. above the crystallization onset temperature ([1]; listed as Ex. 92) | percent solid at 10° C. above the crystallization onset temperature ([1]; listed as Ex 90) [%] | SMILES | percent solid at 10° C. above the crystallization onset temperature [1] | Oxidative Onset Temperature (OOT) after formulation ([2]; formulated) | Oxidative Onset Temperature (OOT) ([2]; unformulated) [°C] |
| --- | --- | --- | --- | --- | --- | --- |
| 100 | not melted at all | – | CCCCCCCCCCCC(=O)OCC(COC(=O)CCCCCCCCCCC)OC(=O)CCCCCCCCCCC [Example 92] | significant amounts of crystalline solids | – | – |
| – | – | – | CCCCCCCC/C=C\CCCCCCCC(=O)OCC(CC)(COC(=O)CCCCCCC/C=C\CCCCCCCC)COC(=O)CCCCCCC/C=C\CCCCCCCC [TMP trioleates] | – | up to 206 °C | 156 |
| 81 | – | 46 | CCCCCCCCCCCC(=O)OCC(CC)(COC(=O)CCCCCCCCCCC)COC(=O)CCCCCCCCCCC [Example 90] | significant amounts of crystalline solids | – | – |
